Measurements: patent US20070231298A1, “Cytokine-expressing cancer immunotherapy combinations” (Cell Genesys, Inc., priority 2006, published 2007)

What was measured:
[1] = molecular target: T1, Pyk2 (Homo sapiens, UniProt Q14289); assay: Western blot of phosphorylated Pyk2 in stimulated Jurkat cells; format: cell-based; settings: anti-CD3 10 minutes, increasing concentrations 0, 12.5, 50 mcg/ml
T1 construct: Nutrients-starved human T cell clones (Jurkat cells) were stimulated; endogenous in cells; host or cells: Jurkat cells (human T cell line)

[2] = system: IFN-gamma-secreting T-cells; assay: Activated T-cells, IFN-gamma-secreting T-cells in splenocytes, TKI started after immunization; format: in vivo, C57Bl6 mice; settings: 200 mg/kg daily oral gavage from Day 15, post immunotherapy (Days 3 and 17); spleens Day 31
Text: (§1) Mice were sacrificed on Day 31 and the spleens were removed and evaluated for induction of a primary T-cell response by quantifying the number of IFN-gamma-secreting T-cells per 5×10^5 splenocytes when stimulated using an ovalbumin-specific peptide.
as §1

[3] = system: IFN-gamma-secreting T-cells; assay: Naïve T-cell priming, IFN-gamma-secreting T-cells in splenocytes, TKI started before immunization; settings: 200 mg/kg daily oral gavage prior to and/or concurrently with cytokine-expressing cancer immunotherapy; ovalbumin-specific peptide stimulation
[4] = system: ovalbumin-specific CD8 T cells; assay: Expansion of adoptively transferred OT-1 transgenic T cells, tetramer/CD8 FACs; settings: 200 mg/kg daily oral gavage from Day-7 for 20 days plus GM.ova on day 3; Day 9; relative to immunotherapy alone
[5] = molecular target: T2, Zap-70 (Homo sapiens, UniProt P43403); settings: Jurkat cells, anti-CD3 10 minutes, increasing concentrations 0, 12.5, 50 mcg/ml
T2 sequence (P43403 1-619): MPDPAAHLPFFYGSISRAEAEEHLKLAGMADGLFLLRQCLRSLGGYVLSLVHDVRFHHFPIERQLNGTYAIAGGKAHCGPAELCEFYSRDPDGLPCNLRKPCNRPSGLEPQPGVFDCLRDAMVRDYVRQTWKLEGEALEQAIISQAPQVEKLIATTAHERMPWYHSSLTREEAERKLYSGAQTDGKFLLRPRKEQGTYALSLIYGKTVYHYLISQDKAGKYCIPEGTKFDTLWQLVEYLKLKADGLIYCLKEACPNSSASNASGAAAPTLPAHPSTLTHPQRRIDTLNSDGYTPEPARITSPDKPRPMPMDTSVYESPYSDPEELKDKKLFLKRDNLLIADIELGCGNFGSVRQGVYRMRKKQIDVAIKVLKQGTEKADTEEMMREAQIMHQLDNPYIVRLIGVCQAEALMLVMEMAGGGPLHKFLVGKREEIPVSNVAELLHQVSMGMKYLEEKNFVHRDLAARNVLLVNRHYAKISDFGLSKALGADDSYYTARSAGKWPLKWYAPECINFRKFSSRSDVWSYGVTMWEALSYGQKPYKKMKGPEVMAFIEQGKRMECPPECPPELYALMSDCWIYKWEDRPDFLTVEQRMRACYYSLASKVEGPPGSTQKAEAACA

T1 sequence (Q14289 whole entry): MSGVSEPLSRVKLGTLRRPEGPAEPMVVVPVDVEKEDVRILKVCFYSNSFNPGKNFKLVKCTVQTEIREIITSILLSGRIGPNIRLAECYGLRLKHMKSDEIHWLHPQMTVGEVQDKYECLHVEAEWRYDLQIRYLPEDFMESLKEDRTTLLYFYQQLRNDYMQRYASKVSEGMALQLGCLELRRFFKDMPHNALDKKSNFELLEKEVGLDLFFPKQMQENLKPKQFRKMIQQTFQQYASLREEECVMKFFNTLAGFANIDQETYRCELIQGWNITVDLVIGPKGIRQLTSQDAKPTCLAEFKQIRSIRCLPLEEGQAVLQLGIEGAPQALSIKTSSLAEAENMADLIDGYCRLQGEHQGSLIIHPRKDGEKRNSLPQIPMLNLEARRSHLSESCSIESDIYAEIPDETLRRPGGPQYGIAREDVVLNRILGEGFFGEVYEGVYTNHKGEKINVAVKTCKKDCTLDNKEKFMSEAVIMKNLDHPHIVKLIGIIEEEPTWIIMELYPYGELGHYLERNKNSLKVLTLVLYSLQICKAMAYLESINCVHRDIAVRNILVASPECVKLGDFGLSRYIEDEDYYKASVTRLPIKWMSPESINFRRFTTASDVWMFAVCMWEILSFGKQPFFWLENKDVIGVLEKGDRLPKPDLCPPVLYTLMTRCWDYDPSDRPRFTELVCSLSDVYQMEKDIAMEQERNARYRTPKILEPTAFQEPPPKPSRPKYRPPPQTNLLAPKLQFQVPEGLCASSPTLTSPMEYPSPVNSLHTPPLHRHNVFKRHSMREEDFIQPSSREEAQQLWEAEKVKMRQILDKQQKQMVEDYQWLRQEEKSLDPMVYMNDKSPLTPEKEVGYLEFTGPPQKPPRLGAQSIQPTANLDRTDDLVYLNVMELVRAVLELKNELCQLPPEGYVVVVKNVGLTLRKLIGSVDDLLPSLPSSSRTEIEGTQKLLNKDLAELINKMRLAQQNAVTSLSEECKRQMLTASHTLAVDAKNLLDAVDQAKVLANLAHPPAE

| amount of phosphorylated Pyk2 [1] | amount of phosphorylated Zap-70 [5] | Structure (SMILES) | number of ova-antigen activated T-cells (IFN-gamma-secreting T-cells per 5×10^5 splenocytes) [2] | number of primed naïve T-cells (IFN-gamma-secreting T-cells per 5×10^5 splenocytes) [3] | absolute number of ovalbumin-specific CD8 T cells in spleen and lymph nodes [4] |
| --- | --- | --- | --- | --- | --- |
| decreased | – | C#Cc1cccc(Nc2ncnc3cc(OCCOC)c(OCCOC)cc23)c1 [erolotinib, N-(3-ethynylphenyl)-6,7-bis(2-methoxy)-4-quinazolinamine] | slight increase | decrease | increased |
| decreased | decreased | COc1cc2ncnc(Nc3ccc(F)c(Cl)c3)c2cc1OCCCN1CCOCC1 [genfitinib] | slight increase | decrease | increased |
